Measurements as given in patent publication US6998411B2, “2-Methylheptylisonicotinate and process for production thereof” (Council of Scientific and Industrial Research, priority 2001, dated 2006).
Values after ≈ are worked out from the molar mass of the structure shown. Like-named read-outs stand apart in the source and are kept apart here.

Key:
Assay type in all cases: cell-based
[1] = tested on: Bacillus subtilis; assay: antibacterial activity, MIC
[2] = tested on: Arthrobacter sp.; assay: antibacterial activity, MIC
[3] = tested on: E. coli; assay: antibacterial activity, MIC; settings: Escherichia coli
[4] = tested on: F. semitectum; assay: antifungal activity, MIC; settings: Fusarium incarnatum
[5] = tested on: F. oxysponim; assay: antifungal activity, MIC
[6] = tested on: Shigella sp.; assay: antibacterial activity, MIC
[7] = tested on: F. moniliformae; assay: antifungal activity, MIC
[8] = tested on: Proteus mirabilis; assay: antibacterial activity, MIC
[9] = tested on: F. solani; assay: antifungal activity, MIC; settings: Fusarium solani
[10] = tested on: Rhizoctonia solani; assay: antifungal activity, MIC
[11] = tested on: Klebsiella sp.; assay: antibacterial activity, MIC
[12] = tested on: Rhizoctonia solani; assay: agar cup assay, zone of inhibition; settings: purified compound, 10 μg of the substance
Procedure: (§1) 2-Methylheptylisonicotinate of formula 1 was bioassayed following agar cup assay method (Grammer, 1976). […] The antibacterial activity of the bioactive molecule was tested against dominant bacterial strains such as Bacillus subtilis, E. coli, Shigella sp., Klebsiella sp. and Proteus mirabilis. Maximum inhibition was recorded in E. coli (30 mm in diameter) and Proteus mirabilis (28 mm). […] Maximum zone of inhibition was recorded in Fusarium solani and F. semitechtum (26 mm with 10 μg of the substance), and in F. oxysporum inhibition zone was 25 mm. Similar inhibition was also observed in F. moniliformae and Rhizoctonia solani (24 mm and 22 mm) respectively (Tables 2, 3 & 4). The above antibiotic activity against dominant pathogens is the clear indication of the potential application of the compound for both agricultural and medical purposes.
as §1, with “2-Methylheptylisonicotinate” for “2-Methylheptylisonicotinate of formula”, “(Table” for “(Tables”, “4).” for “4). The above antibiotic activity against dominant pathogens is the clear indication of the potential application of the compound for both agricultural and medical purposes.”

[13] = tested on: F. solani; assay: agar cup assay, zone of inhibition; settings: purified compound, 10 μg of the substance
Procedure: as §1
as §1, with “2-Methylheptylisonicotinate” for “2-Methylheptylisonicotinate of formula”, “(Table” for “(Tables”, “4).” for “4). The above antibiotic activity against dominant pathogens is the clear indication of the potential application of the compound for both agricultural and medical purposes.”

[14] = tested on: F. oxysporum; assay: agar cup assay, zone of inhibition; settings: purified compound, 10 μg of the substance
Procedure: as §1
as §1, with “2-Methylheptylisonicotinate” for “2-Methylheptylisonicotinate of formula”, “(Table” for “(Tables”, “4).” for “4). The above antibiotic activity against dominant pathogens is the clear indication of the potential application of the compound for both agricultural and medical purposes.”

[15] = tested on: Shigella sp.; assay: agar cup assay, zone of inhibition; settings: purified compound, 10 μg of the substance
Procedure: as §1
as §1, with “2-Methylheptylisonicotinate” for “2-Methylheptylisonicotinate of formula”, “(Table” for “(Tables”, “4).” for “4). The above antibiotic activity against dominant pathogens is the clear indication of the potential application of the compound for both agricultural and medical purposes.”

[16] = tested on: F. semitechtum; assay: agar cup assay, zone of inhibition; settings: purified compound, 10 μg of the substance
Procedure: as §1
as §1, with “2-Methylheptylisonicotinate” for “2-Methylheptylisonicotinate of formula”, “(Table” for “(Tables”, “4).” for “4). The above antibiotic activity against dominant pathogens is the clear indication of the potential application of the compound for both agricultural and medical purposes.”

[17] = tested on: Klebsiella sp.; assay: agar cup assay, zone of inhibition; settings: purified compound, 10 μg of the substance
Procedure: as §1
as §1, with “2-Methylheptylisonicotinate” for “2-Methylheptylisonicotinate of formula”, “(Table” for “(Tables”, “4).” for “4). The above antibiotic activity against dominant pathogens is the clear indication of the potential application of the compound for both agricultural and medical purposes.”

[18] = tested on: Bacillus subtilis; assay: agar cup assay, zone of inhibition; settings: purified compound, 10 μg of the substance
Procedure: as §1
as §1, with “2-Methylheptylisonicotinate” for “2-Methylheptylisonicotinate of formula”, “(Table” for “(Tables”, “4).” for “4). The above antibiotic activity against dominant pathogens is the clear indication of the potential application of the compound for both agricultural and medical purposes.”

[19] = tested on: E. coli; assay: agar cup assay, zone of inhibition; settings: purified compound, 10 μg of the substance
Procedure: as §1
as §1, with “2-Methylheptylisonicotinate” for “2-Methylheptylisonicotinate of formula”, “(Table” for “(Tables”, “4).” for “4). The above antibiotic activity against dominant pathogens is the clear indication of the potential application of the compound for both agricultural and medical purposes.”

[20] = tested on: Fusarium moniliforme; assay: agar cup assay, zone of inhibition; settings: purified compound, 10 μg of the substance
Procedure: as §1
as §1, with “2-Methylheptylisonicotinate” for “2-Methylheptylisonicotinate of formula”, “(Table” for “(Tables”, “4).” for “4). The above antibiotic activity against dominant pathogens is the clear indication of the potential application of the compound for both agricultural and medical purposes.”

[21] = tested on: Proteus mirabilis; assay: agar cup assay, zone of inhibition; settings: purified compound, 10 μg of the substance
Procedure: as §1
as §1, with “2-Methylheptylisonicotinate” for “2-Methylheptylisonicotinate of formula”, “(Table” for “(Tables”, “4).” for “4). The above antibiotic activity against dominant pathogens is the clear indication of the potential application of the compound for both agricultural and medical purposes.”

[22] = Fusarium oxysporum, read-out: MIC

| Compound | MIC [1] [µg/mL] | MIC [2] [µg/mL] | MIC [3] [µg/mL] | MIC [4] [µg/mL] | MIC [5, 22] [µg/mL] | MIC [6] [µg/mL] | MIC ([7]; read-out: MIC) [µg/mL] | MIC [8] [µg/mL] | MIC [9] [µg/mL] | MIC [10] [µg/mL] | MIC [11] [µg/mL] | further results |
| --- | --- | --- | --- | --- | --- | --- | --- | --- | --- | --- | --- | --- |
| NNC(=O)c1ccncc1 [Isoniazid, isonicotinic acid hydrazide, reference compound] | 150 (≈ 1090 µM) | 150 (≈ 1090 µM) | 250 (≈ 1820 µM) | 300 (≈ 2190 µM) | 350 (≈ 2550 µM) | 300 (≈ 2190 µM) | 200 (≈ 1460 µM) | 200 (≈ 1460 µM) | 300 (≈ 2190 µM) | 250 (≈ 1820 µM) | 250 (≈ 1820 µM) | – |
| CCCCCC(C)COC(=O)c1ccncc1 (stereo not shown) [Compound 1, 2-methylheptylisonicotinate] | 50 (≈ 212 µM) | 40 (≈ 170 µM) | 70 (≈ 297 µM) | 20 (≈ 85 µM) | 43 (≈ 183 µM) | 60 (≈ 255 µM) | 45 (≈ 191 µM) | 40 (≈ 170 µM) | 20 (≈ 85 µM) | 20 (≈ 85 µM) | 50 (≈ 212 µM) | MIC ([5]; F. oxysponim (F. oxysporum), listed as I): 45 µg/mL (≈ 191 µM); MIC ([7]; listed as I): 42 µg/mL (≈ 178 µM); Inhibition zone [12]: 22 mm; Inhibition zone [13]: 26 mm; Inhibition zone [14]: 25 mm; Inhibition zone [15]: 20 mm; Inhibition zone [16]: 26 mm; Inhibition zone [17]: 18 mm; Inhibition zone [18]: 20 mm; Inhibition zone [19]: 30 mm; Inhibition zone [20]: 24 mm; Inhibition zone [21]: 28 mm |
